“Also recorded” adds a separate entry of the source.
How the values were obtained:
[1] = tested on: experimental periodontitis model mice; assay: bone regeneration in experimental periodontitis model mice (teeth ligated with silk threads); assay type: in vivo, mouse; settings: 22-month-old aging mice; 20 mg/kg intraperitoneally once; 5 days regeneration period
Excerpt: Experimental periodontitis model mice in which teeth are ligated with silk threads are useful models for inflammatory bone destruction research because inflammations and bone resorption occur in about 10 days after the ligation. The above-described experimental periodontitis models were produced by using 6-week-old wild-type mice (N=8, male C57BL/6N mice, manufactured by CLEA Japan, Inc.), 22-month-old aging mice (N=4, male C57BL/6N mice, manufactured by CLEA Japan, Inc.), and 6-week-old DEL-1-deficient mice (N=8, male C57BL/6N mice (manufactured by CLEA Japan, Inc.), a method for producing the deficient mice was as described in Non Patent Document 1), the silk threads were removed 10 days after the ligation, a remission phase of inflammation of 5 days passed, and in the wild-type mice, new bone formation was recognized at the site of resorbed bone defect while no repair mechanism of the periodontal tissue by DEL-1 was recognized.
The experimental periodontitis models described in Example 1 were produced by using 6-week-old wild-type mice (N=8, male C57BL/6N mice, manufactured by CLEA Japan, Inc.), 22-month-old aging mice (N=4, male C57BL/6N mice, manufactured by CLEA Japan, Inc.), and 6-week-old DEL-1-deficient mice (N=8, male C57BL/6N mice (manufactured by CLEA Japan, Inc.), a method for producing the deficient mice was as described in Non Patent Document 1), the silk threads were removed 10 days after the ligation to experimentally induce periodontitis, subsequently a bone regeneration period of 5 days was provided, and then the amount of regeneration of resorbed bone was measured using a stereomicroscope and image measurement software (manufactured by Nikon Corporation). Erythromycin (10 mg/kg) and ethanol (final concentration 0.1% by mass) were intraperitoneally administered once after the removal of the silk threads. In addition, DEL-1 (1 μg) and Fc control (0.84 μg) were directly inoculated into the gingiva after the removal of the silk threads. The results are shown in FIG. 3 (left: wild-type mice, right: DEL-1-deficient mice) and FIG. 4 (aging mice).
Next, the experimental periodontitis model described in Example 1 was produced by using 22-month-old aging mice (N=4, male C57BL/6N mouse, manufactured by CLEA Japan, Inc.), the silk threads were removed 10 days after the ligation to experimentally induce periodontitis, subsequently a bone regeneration period of 5 days was provided, and the amount of regeneration of resorbed bone was measured using a stereomicroscope and image measurement software (manufactured by Nikon Corporation). Erythromycin (ERM) (20 mg/kg), azithromycin (AZM) (20 mg/kg), clarithromycin (CLM) (20 mg/kg), and ethanol (final concentration 0.1% by mass) as a control were intraperitoneally administered once after the removal of the silk threads. […] In addition, there was no difference in the amount of bone regeneration between the macrolide antimicrobial agent-administered groups.

osteoblasts = assay: bone nodule measurement in osteoblasts (Alizarin red S); assay type: cell-based, mouse; settings: osteoblasts derived from wild-type mice; 10 μg/mL each; 15 days
Procedure: Next, from the cranial bones of 3-day-old wild-type mice (N=6, male C57BL/6N mice, manufactured by CLEA Japan, Inc.) and 3-day-old DEL-1-deficient mice (N=6, male C57BL/6N mice (manufactured by CLEA Japan, Inc.), a method for producing the deficient mice was as described in Non Patent Document 1), osteoblasts were isolated by allowing 0.1% by mass of type 1 collagenase and 0.2% by mass of dispase to act at 37° C. for 20 minutes, and the cells were cultured in α-MEM and a bone differentiation medium (containing 50 μg/ml ascorbic acid and 10 mM β-glycerol 2-phosphate). Ethanol (final concentration 0.1% by mass) and erythromycin (10 μg/mL) were added into the medium in which the osteoblasts (1×10^4 cells/mL) derived from the wild-type mice or the DEL-1-deficient mice were cultured. The medium was exchanged every 3 days, and after 15 days, the cells were stained with Alizarin red S, followed by performing of bone nodule measurement.
Next, the proportion (%) of bone nodules with respect to the observation region in the above-described osteoblasts was calculated from microscopic images by using image processing software (NIH Image). In addition, RNA was extracted from each of the osteoblasts by using an RNeasy Kit (manufactured by QIAGEN NV), subsequently cDNA was synthesized by using a cDNA synthesis kit (manufactured by Thermo Fisher Scientific, Inc.), and the relative expression levels of RUNX2 mRNA, Sp7 mRNA, and Bglap mRNA, which are important for bone regeneration, were checked by an RT-PCR method (Quantstudio3, Thermo Fisher Scientific, Inc.). Regarding primers, designed primers manufactured by Thermo Fisher Scientific, Inc. were used. The Assay IDs of the primers used are shown below.
(Bone regeneration-inducing effect 2 by various macrolide antimicrobial agents) From the cranial bones of 3-day-old wild-type mice (N=6, male C57BL/6N mice, manufactured by CLEA Japan, Inc.), osteoblasts were isolated by allowing 0.1% by mass of type 1 collagenase and 0.2% by mass of dispase to act at 37° C. for 20 minutes, and the cells were cultured in α-MEM and a bone differentiation medium (containing 50 μg/ml ascorbic acid and 10 mM β-glycerol 2-phosphate). Ethanol (final concentration 0.1% by mass), or erythromycin, clarithromycin, or azithromycin (10 μg/mL each) was added into the medium in which the osteoblasts (1×10^4 cells/mL) derived from the wild-type mice were cultured. The medium was exchanged every 3 days, and after 15 days, the cells were stained with Alizarin red S, followed by performing of bone nodule measurement. The results are shown in FIG. 11 In FIG. 11, the symbol * indicates p<0.05, and the symbol ** indicates p<0.01. In addition, the control is an ethanol (final concentration 0.1% by mass)-added group.

[2] = tested on: iCell mesenchymal stem cells; assay: bone nodule measurement in mesenchymal stem cells induced from human iPS cells; assay type: cell-based; settings: 10 μg/mL for each; 15 days; bone differentiation medium
Procedure: iCell (registered trademark) mesenchymal stem cells (iCell (registered trademark) MSCs) (#01279, manufactured by Fujifilm Corporation) (1×10^4 cells/mL) obtained by inducing human mesenchymal stem cells from iPS cells, were cultured in α-MEM and a bone differentiation medium (containing 50 μg/mL ascorbic acid and 10 mM β-glycerol 2-phosphate). Ethanol (final concentration 0.1% by mass), or erythromycin, clarithromycin, or azithromycin (10 μg/mL for each) was added to the medium. The medium was exchanged every 3 days, and after 15 days, the cells were stained with Alizarin red S, followed by performing of bone nodule measurement. The results are shown in FIG. 18 (stained images) and FIG. 19 (graph showing the proportion of bone nodules). In FIG. 18 and FIG. 19, the ethanol (final concentration 0.1% by mass)-added group is a control. In FIG. 19, the symbol * indicates p≤0.05, the symbol ** indicates p≤0.01, the symbol *** indicates p≤0.001, and the symbol **** indicates p≤0.0001.

[3] = tested on: bone defects in the jawbones; assay: jawbone defect regeneration in cynomolgus monkeys (microCT); assay type: in vivo; settings: 200 μg at bone defect site, one month
Procedure: Bone defects with a diameter of 2 cm and a depth of 2 cm were artificially produced in the jawbones of young (2 years old) and aged (10 years old) cynomolgus monkeys by using a round steel bar. Next, 200 μg of each of erythromycin, clarithromycin, and azithromycin were added to the bone defect sites. As controls, a non-administered group and a group administered with 200 μg of REGROTH (registered trademark), which has been approved as a bone regenerative agent, were also prepared. The amount of bone regeneration after one month from the administration of each drug was checked by using microCT. In FIG. 10, the symbol * indicates p<0.01.

[4] = aged (10 years old) cynomolgus monkeys
[5] = young (2 years old) cynomolgus monkeys

Compound	bone regeneration (FIG. 9) [1]	formation of bone nodules (FIG. 11) (osteoblasts)	formation of bone nodules (FIG. 18, FIG. 19) [2]	bone regeneration effect (FIG. 10) [3, 4]	bone regeneration effect (FIG. 10) [3, 5]
CC[C@H]1OC(=O)[C@H](C)[C@@H](O[C@H]2C[C@@](C)(OC)[C@@H](O)[C@H](C)O2)[C@H](C)[C@@H](O[C@@H]2O[C@H](C)C[C@H](N(C)C)[C@H]2O)[C@](C)(O)C[C@@H](C)CN(C)[C@H](C)[C@@H](O)[C@]1(C)O [azithromycin]	bone regeneration was recognized	the formation of bone nodules was recognized; also recorded: particularly favorable	the formation of bone nodules was recognized	a bone regeneration effect was recognized	a bone regeneration effect was recognized
CC[C@H]1OC(=O)[C@H](C)[C@@H](O[C@H]2C[C@@](C)(OC)[C@@H](O)[C@H](C)O2)[C@H](C)[C@@H](O[C@@H]2O[C@H](C)C[C@H](N(C)C)[C@H]2O)[C@](C)(OC)C[C@@H](C)C(=O)[C@H](C)[C@@H](O)[C@]1(C)O [clarithromycin]	bone regeneration was recognized	the formation of bone nodules was recognized	the formation of bone nodules was recognized	a bone regeneration effect was recognized	a bone regeneration effect was recognized

— patent US20240382508A1, “REGENERATIVE AGENT FOR BONE TISSUE AND LUNG TISSUE, AND PHARMACEUTICAL COMPOSITION FOR REGENERATING BONE TISSUE AND LUNG TISSUE” (NIIGATA UNIVERSITY, priority 2021, published 2024)
